Experimental data as given in paper PMC10044640, “Antimicrobial Peptides Designed against the Ω-Loop of Class A β-Lactamases to Potentiate the Efficacy of β-Lactam Antibiotics” (Antibiotics, 2023).
Read-outs that look alike come from different tables or passages of the source.

How the values were obtained:
E. coli CS109 [1] = experiment: HT-SPOTi MIC of β-lactams with or without peptides; assay type: cell-based, Escherichia coli; settings: for MIC Value Antibiotics, β-lactam alone: E. coli CS109, no peptide, HT-SPOTi agar, ~10^3 CFU/well, triplicate
K. pneumoniae = experiment: HT-SPOTi MIC of β-lactams with or without peptides; assay type: cell-based, Klebsiella pneumoniae; settings: for MIC Value Antibiotics, β-lactam alone: K. pneumoniae, no peptide, triplicate
M. smegmatis MC2 155 = experiment: HT-SPOTi MIC of β-lactams with or without peptides; assay type: cell-based, Mycobacterium smegmatis; settings: no peptide, triplicate
[2] = tested on: E. coli CS109 + pBAD-TEM1; assay type: cell-based, Escherichia coli; settings: E. coli CS109 + pBAD-TEM1 (arabinose-induced), no peptide; HT-SPOTi
[3] = tested on: E. coli CS109 + pBAD-SHV-14; assay type: cell-based, Escherichia coli; settings: E. coli CS109 + pBAD-SHV-14 (arabinose-induced), no peptide; HT-SPOTi
E. coli CS109 [4] = experiment: Broth microdilution MIC; assay type: cell-based, Escherichia coli; settings: E. coli CS109, no peptide; broth microdilution (CLSI), MHB, ~10^5 cells/well, OD600; triplicate
[5] = tested on: E. coli CS109 + pBAD-TEM1; assay type: cell-based, Escherichia coli; settings: CS109 + pBAD-TEM1, no peptide; broth microdilution, MHB, ~10^5 cells/well, OD600
[6] = tested on: E. coli CS109 + pBAD-SHV-14; assay type: cell-based, Escherichia coli
TEM-1 = molecular target: T1, TEM-1 (Escherichia coli, UniProt P62593); experiment: Kinetics of β-lactam hydrolysis with or without peptides; assay type: biochemical
T1 construct: The full-length constructs (blaSHV-14 and blaTEM-1) were cloned and expressed in pBAD18-Cam (Cam^R) vector; 6xHis (N); made in house; host or cells: E. coli BL21 (DE3) pLysS, pET28a(+)
T1 sequence (P62593 24-286 limits assumed): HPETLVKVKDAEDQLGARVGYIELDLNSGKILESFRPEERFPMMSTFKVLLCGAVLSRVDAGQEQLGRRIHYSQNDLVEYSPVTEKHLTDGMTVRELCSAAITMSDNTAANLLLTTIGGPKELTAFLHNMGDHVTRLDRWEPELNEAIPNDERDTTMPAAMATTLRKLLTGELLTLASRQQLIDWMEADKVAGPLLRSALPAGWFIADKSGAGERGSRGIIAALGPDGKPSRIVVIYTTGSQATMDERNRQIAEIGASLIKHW
Description: (§1) The N-terminal 6X histidine-tagged proteins (SHV-14 and TEM-1) were expressed from the respective plasmid constructs already available in the laboratory and were purified by Ni-NTA affinity chromatography using an AKTA prime plus (GE Healthcare, Piscataway, NJ, USA) as described previously. Nitrocefin hydrolysis was used to validate the β-lactamase activity of both proteins.
(§2) Assessment of enzyme activities was carried out by calculating the kinetic parameters [Michaelis–Menten constants (Km and Vmax), turn-over number (kcat), and catalytic efficiency (kcat/Km)] with various β-lactam substrates in the presence of the peptides as described previously. The hydrolysis reaction was carried out at 25 °C in 10 mM Tris-HCl, 300 mM NaCl (pH 7.5) buffer supplemented with 1 μg mL^−1 bovine serum albumin for protein stability. The enzyme concentrations (0.46 μM: SHV-14 and 0.42 μM: TEM-1) were taken to determine the initial rate constants at varying substrate concentrations (20–500 μM). The values were calculated using the online curve-fitting tool (https://www.mycurvefit.com, MyAssays Ltd., Brighton, UK, accessed on 25 May 2022).

SHV-14 = experiment: as above; assay type: biochemical, Klebsiella pneumoniae; settings: SHV-14 0.46 μM, no peptide, 25 °C; for Km: 10 mM Tris-HCl, 300 mM NaCl pH 7.5, 1 μg/mL BSA, substrate 20–500 μM, read-out: Km, β-lactam substrate alone; for kcat, β-lactam substrate alone: pH 7.5
Description: as §1, §2

M. tuberculosis H37Rv = experiment: HT-SPOTi MIC of ampicillin with or without peptides; assay type: cell-based; settings: Mycobacterium tuberculosis, MTB H37Rv, control row of Table S2, read-out: MIC value, control drug
[7] = tested on: Gram-negative strains (E. coli CS109, K. pneumoniae); experiment: HT-SPOTi, cephalosporins with peptides; assay type: cell-based, Escherichia coli; Klebsiella pneumoniae; settings: strain not given
Description: HT-SPOTi (high-throughput spot culture growth inhibition) assay was used to evaluate the whole cell phenotypic effect of peptides against a selection of Gram-negative and acid-fast bacterial strains in the presence of β-lactam antibiotics as previously described. The distribution of the molten agar media into the 96 wells was achieved using the Multidrop Combi microplate dispenser (Thermo-Fisher Scientific). Plates were left for 5 min for the agar to set, and a diluted inoculum of bacteria was applied (2 µL of ∼10^3 CFU) into each well by either the use of a multi-channel pipettor or by using the Multidrop Combi. DMSO was taken as no antibiotic control and kanamycin as non-β-lactam drug control. Unless otherwise specified, all the experiments were performed in triplicate.
To check the inhibitory activity of peptides and comprehend particular structure–activity relationships, HT-SPOTi assay was performed. The whole-cell phenotypic effect of the 10 pentapeptides was ascertained in combination with β-lactam antibiotics in E. coli CS109 and K. pneumoniae.

[8] = tested on: CC1(C)S[C@@H]2[C@H](NC(=O)[C@H](N)c3ccc(O)cc3)C(=O)N2[C@H]1C(=O)O; experiment: Kinetics of β-lactam hydrolysis with or without peptides; assay type: biochemical, Escherichia coli; settings: other: TEM-1 0.42 μM, no peptide, 25 °C, 10 mM Tris-HCl, 300 mM NaCl pH 7.5, 1 μg/mL BSA, substrate 20–500 μM
Description: as §1, §2

[9] = tested on: CCN1CCN(C(=O)N[C@@H](C(=O)N[C@@H]2C(=O)N3[C@@H]2SC(C)(C)[C@@H]3C(=O)O)c2ccccc2)C(=O)C1=O; experiment: as above; assay type: biochemical, Escherichia coli; settings: other: TEM-1 0.42 μM, no peptide, 25 °C, 10 mM Tris-HCl, 300 mM NaCl pH 7.5, 1 μg/mL BSA, substrate 20–500 μM
Description: as §1, §2

[10] = CS109 + pBAD-SHV-14, no peptide, broth microdilution, MHB, ~10^5 cells/well, OD600
[11] = TEM-1 0.42 μM, no peptide; 25 °C, pH 7.5

Compound: CC1(C)S[C@@H]2[C@H](NC(=O)[C@H](N)c3ccccc3)C(=O)N2[C@H]1C(=O)O [Amp, Ampicillin]
- MIC Value Antibiotics, β-lactam alone (E. coli CS109 [1]): 4 mg/L
- MIC Value Antibiotics, β-lactam alone (K. pneumoniae): 32 mg/L
- MIC Value Antibiotics, β-lactam alone (M. smegmatis MC2 155): 4 mg/L
- MIC Value of Antibiotics, β-lactam alone [2]: 16 mg/L
- MIC Value of Antibiotics, β-lactam alone [3]: 32 mg/L
- MIC Value of Antibiotics, β-lactam alone (E. coli CS109 [4]): 8 mg/L
- MIC Value of Antibiotics, β-lactam alone [5]: 32 mg/L
- MIC Value of Antibiotics, β-lactam alone [6, 10]: 64 mg/L
- kcat, β-lactam substrate alone (TEM-1; [11]): 290 ± 85.55 s⁻¹
- Km (TEM-1; read-out: Km, β-lactam substrate alone; TEM-1 0.42 μM, no peptide; 25 °C, 10 mM Tris-HCl, 300 mM NaCl pH 7.5, 1 μg/mL BSA; substrate 20–500 μM): 66 ± 12.2 µM
- Km (SHV-14): 187 ± 12.2 µM
- kcat, β-lactam substrate alone (SHV-14): 644.95 ± 10.97 s⁻¹

Compound: CC1(C)S[C@@H]2[C@H](NC(=O)[C@H](N)c3ccc(O)cc3)C(=O)N2[C@H]1C(=O)O [Amx, Amoxicillin]
- MIC Value Antibiotics, β-lactam alone (E. coli CS109 [1]): 8 mg/L
- MIC Value Antibiotics, β-lactam alone (K. pneumoniae): 64 mg/L
- MIC Value Antibiotics, β-lactam alone (M. smegmatis MC2 155): 2 mg/L
- MIC Value of Antibiotics, β-lactam alone [2]: 32 mg/L
- MIC Value of Antibiotics, β-lactam alone (E. coli CS109 [4]): 16 mg/L
- MIC Value of Antibiotics, β-lactam alone [5]: 64 mg/L
- Km (SHV-14): 112 ± 12.2 µM
- kcat, β-lactam substrate alone (SHV-14): 416.95 ± 5.02 s⁻¹

Compound: NNC(=O)c1ccncc1 [Isoniazid]
- MIC (M. tuberculosis H37Rv): 2 mg/L

Compound: NC[C@H]1O[C@H](O[C@H]2[C@H](O)[C@@H](O[C@H]3O[C@H](CO)[C@@H](O)[C@H](N)[C@H]3O)[C@H](N)C[C@@H]2N)[C@H](O)[C@@H](O)[C@@H]1O [Kanamycin]
- MIC Value, non-β-lactam drug control (E. coli CS109 [1]; Table 4 control row, construct not given, one value under each column Pen, Amp, Amx, Pip, HT-SPOTi): 64 mg/L
- MIC Value, non-β-lactam drug control (K. pneumoniae; Table 3b control row, one value printed under each column Pen, Amp, Amx, Pip): 64 mg/L

Compound: CCN1CCN(C(=O)N[C@@H](C(=O)N[C@@H]2C(=O)N3[C@@H]2SC(C)(C)[C@@H]3C(=O)O)c2ccccc2)C(=O)C1=O [Pip, Piperacillin]
- MIC Value Antibiotics, β-lactam alone (E. coli CS109 [1]): 16 mg/L
- MIC Value Antibiotics, β-lactam alone (K. pneumoniae): 64 mg/L
- MIC Value Antibiotics, β-lactam alone (M. smegmatis MC2 155): >250 mg/L
- MIC Value of Antibiotics, β-lactam alone [2]: 64 mg/L
- MIC Value of Antibiotics, β-lactam alone [3]: 64 mg/L
- MIC Value of Antibiotics, β-lactam alone (E. coli CS109 [4]): 16 mg/L
- MIC Value of Antibiotics, β-lactam alone [5]: 125 mg/L
- MIC Value of Antibiotics, β-lactam alone [6, 10]: 125 mg/L
- Km (SHV-14): 98.7 ± 12.2 µM
- kcat, β-lactam substrate alone (SHV-14): 432.09 ± 5.97 s⁻¹

Compound: N[C@@H](C(=O)N[C@@H]1C(=O)N2C(C(=O)O)=C(Cl)CS[C@H]12)c1ccccc1 [cefaclor]
- levels of resistance to the cephalosporin with peptides [7]: remained unaltered

Compound: CC1=C(C(=O)O)N2C(=O)[C@@H](NC(=O)[C@H](N)c3ccc(O)cc3)[C@H]2SC1 [cefadroxil]
- levels of resistance to the cephalosporin with peptides [7]: remained unaltered

Compound: CO/N=C(\C(=O)N[C@@H]1C(=O)N2C(C(=O)[O-])=C(C[N+]3(C)CCCC3)CS[C@H]12)c1csc(N)n1 [cefepime]
- levels of resistance to the cephalosporin with peptides [7]: remained unaltered

Compound: CCN1CCN(C(=O)N[C@@H](C(=O)N[C@@H]2C(=O)N3C(C(=O)O)=C(CSc4nnnn4C)CS[C@H]23)c2ccc(O)cc2)C(=O)C1=O [cefoperazone]
- levels of resistance to the cephalosporin with peptides [7]: remained unaltered

Compound: CC(C)(O/N=C(\C(=O)N[C@@H]1C(=O)N2C(C(=O)[O-])=C(C[n+]3ccccc3)CS[C@H]12)c1csc(N)n1)C(=O)O [ceftazidime]
- levels of resistance to the cephalosporin with peptides [7]: remained unaltered

Compound: Penicillin
- MIC Value Antibiotics, β-lactam alone (E. coli CS109 [1]): 32 mg/L
- MIC Value Antibiotics, β-lactam alone (K. pneumoniae): 32 mg/L
- MIC Value of Antibiotics, β-lactam alone [2]: 64 mg/L
- MIC Value of Antibiotics, β-lactam alone [3]: 250 mg/L
- MIC Value of Antibiotics, β-lactam alone (E. coli CS109 [4]): 64 mg/L
- MIC Value of Antibiotics, β-lactam alone [6]: 500 mg/L
- Km (TEM-1; TEM-1 0.42 μM, no peptide; 25 °C, 10 mM Tris-HCl, 300 mM NaCl pH 7.5, 1 μg/mL BSA; substrate 20–500 μM; read-out: Km, β-lactam substrate alone): 67.2 ± 4.43 µM
- kcat, β-lactam substrate alone (TEM-1; [11]): 386.95 ± 15.97 s⁻¹
- Km (SHV-14): 144 ± 4.43 µM
- kcat, β-lactam substrate alone (SHV-14): 586.95 ± 15.97 s⁻¹

Compound: TEM-1 (Escherichia coli)
- Km [8]: 105.09 ± 12.16 µM
- kcat [8]: 427 ± 21 s⁻¹
- Km [9]: 136.32 ± 12.16 µM
- kcat [9]: 331 ± 12.2 s⁻¹
